These results are taken from patent US20230364121A1 (priority 2020, published 2023).

The subject of data set [1] is Huh7 cells. The note with it: human.
Data set [2] deals with human coronavirus alpha-229E. The experiment in a line: microbe, parasite or virus in culture. The class given is cell-based, HCoV-229E. The note with it: for EC90: read-out: Virus Yield Reduction Assay EC90; for EC50: Huh-7, 120 h, read-out: Neutral Red Assay EC50.
Data set [3] is described as follows: in vitro. Particulars: human.
Data set [4] concerns SARS-CoV-2 strain BavPatl. The experiment in a line: Antiviral assay in HUH7.5 cells, viral RNA by RT-qPCR. The class given is cell-based. The note with it: 2 days; for EC90: Severe acute respiratory syndrome coronavirus 2, 48 h. In general terms: Real-time PCR tracks product formation cycle by cycle.
For data set [5], the system named is Salmonella/microsome. Particulars: acknowledged by Merck; cited from earlier work.
In data set [6] the target is SARS CoV1 nsp14 (Severe acute respiratory syndrome coronavirus, UniProt P0C6X7). The class given is biochemical, SARS-CoV-1.
For data set [7], the target named is nsp12 (Severe acute respiratory syndrome coronavirus, UniProt P0C6X7). The class given is binding, SARS-CoV.
In data set [8] the test system is SARS-CoV and SARS-CoV-2 RTCs. The class given is biochemical. Particulars: equimolar concentrations of GTP.
Data set [9] has as its target nsp12-NiRAN (Severe acute respiratory syndrome coronavirus, UniProt P0C6X7). The class given is biochemical, SARS-CoV.
The target of data set [10] is T1, SARS-Cov-1 nsp12:7L8:8 polymerase complex (Severe acute respiratory syndrome coronavirus, UniProt P0C6X7). In words: biochemical. The class given is biochemical.
Data set [11] deals with T1, SARS-Cov-1 nsp12:7L8:8 polymerase complex. The class given is biochemical.
Data set [12] deals with nsp12 NiRAN active-site (Severe acute respiratory syndrome coronavirus, UniProt P0C6X7). The experiment in a line: biochemical. The class given is biochemical, SARS-CoV.
For data set [13], the target named is nsp12:7:8 RTC (Severe acute respiratory syndrome coronavirus, UniProt P0C6X7). The class given is biochemical, SARS-CoV.
The target in data set [14] is Sars-CoV-2 nsp8 labeling by nsp12 (Severe acute respiratory syndrome coronavirus 2, UniProt P0DTD1). In words: nsp8-UMPylation competition assay with RTCs. Particulars: FIG. 13E. The class given is biochemical.
Setting [15] is: unidentified human coronavirus, Huh-7, 72 h.
The mark [16] stands for this setting: Severe acute respiratory syndrome coronavirus 2, Huh7.5, 48 h.

By EC90 is commonly meant the concentration needed for an effect of 90%. Usually EC50 stands for the concentration giving half of the maximal effect. For orientation: IC50 means the midpoint of a concentration-inhibition curve. Higher therefore signals a need for much substance.

The structures appear in SMILES notation. Several values for one entry are separate records, joined by “and”; a condition that tells them apart may be missing. Identical values can stand only once. Like-named read-outs stand apart in the source and are kept apart here.

As to `CCN(CCO)CCCC(C)Nc1ccnc2cc(Cl)ccc12` (stereo not shown) [hydroxychloroquine, reference compound], in data set [1], the CC50 is 26000 nM. Further, the EC90 in [2] was < 48 nM; in data set [2] (setting [15]) it was < 50 nM. Further, the EC50 in [2] (unidentified human coronavirus) was 7400 nM.

Regarding `CC(C)C[C@H](NC(=O)OCc1ccccc1)C(=O)N[C@@H](C[C@@H]1CCNC1=O)C(O)S(=O)(=O)O` (stereo partly shown) [GC376], in data set [3], the CC50 is > 20000 nM. Further, the EC90 in data set [4] was < 150 nM. In addition, in data set [4] (setting [16]), the EC50 was < 150 nM.

For `CC(C)C(=O)OC[C@H]1O[C@@H](n2ccc(NO)nc2=O)[C@H](O)[C@@H]1O` [Molnupiravir, molnupiravir], in [3], the CC50 was > 20000 nM. In [5], the AMES test entry is “positive”. In data set [4], the midpoint of the response, the EC50, lay at 1710 nM and it took 4210 nM to reach the 90% level (EC90). Besides, the midpoint of the response in [4] (setting [16]), the EC50, lay at 1700 nM.

Turning to `C[C@@]1(F)[C@H](O)[C@@H](COP(=O)(O)OP(=O)(O)OP(=O)(O)O)O[C@H]1n1cnc2c(=O)[nH]c(N)nc21` [AT-9010, 2′-fluoro-2′-C-methylguanosine-5′-triphosphate], in data set [6], the “inhibition of N7-MTase activity” value is recorded as “no inhibition”. Also, the “thermal stability of nsp12” value in [7] is recorded as “provides more thermodynamic stability than any other native nucleotide”. Further, the “discrimination compared with natural GTP” value in [8] is ~5 fold. Further, in [9], the “fold preference AT9010: GTP” value is ~1.7 fold and the “fold preference AT9010: UTP” value is recorded as ~3.2 fold. In [10], the EC50 is 1500 to 2000 nM and the “inhibition of de novo synthesis on poly(A) template” value is on record as “almost complete inhibition”. Besides, in [11], the “Discrimination of ATEA-GTP, average” value is 27.0+/−7.9 fold and 21.0+/−1.5 fold and 27.0 fold and 21.0 fold; the “discrimination against GTP” value is 22 fold; the “inhibition of primer elongation” value is “no inhibition of primer elongation”. This compound also showed an IC50 in data set [12] (IC50 of nsp8 labeling against GTP (FIG. 13C)) of 2700 ± 300 nM. Besides, half-maximal inhibition in data set [12] (IC50 of nsp8 labeling against UTP (FIG. 13C)) (IC50) was put at 1900 nM. For the same compound, the IC50 in [12] (IC50 of nsp8 labeling, competition with UTP (FIG. 13A)) was 870 nM. Besides, in data set [13], the “inhibition of RNA synthesis from poly(C) template” value is “significantly reduces activity” and the “inhibition of synthesis of poly(U)n RNA from poly(A)27 template” value is reported as “inhibits synthesis of poly(U)n RNA equally as well as STP”. In addition, the “fold more efficient at blocking nsp8 labeling than STP” value in [14] is 4-5 fold.

On to `CCN(CC)CCCC(C)Nc1ccnc2cc(Cl)ccc12` (stereo not shown) [chloroquine, reference compound], for which the CC50 in data set [1] was 21000 nM. For the same compound, the EC90 in data set [2] (setting [15]) was < 50 nM. Also, the EC50 in data set [2] (unidentified human coronavirus) turned out to be 8100 nM.
